For this experiment, the target named is T1, 5-HT1 -like receptor (Oryctolagus cuniculus, UniProt P49144).
T1 construct: contraction of the saphenous vein of New Zealand White rabbits; from tissue; host or cells: saphenous vein of New Zealand White rabbits
The experiment is described as follows: Agonist-mediated contraction of rabbit saphenous vein. Also on record: species or system New Zealand White rabbits. To be noted: from plots of percentage 5-HT (1 μm) response against agonist concentration, read-out: pEC50 (-log10 EC50), agonist potency (converted). How it is done:
The activity of test compounds as agonists of the 5-HT1 -like receptor was measured in terms of their ability to mediate contraction of the saphenous vein of New Zealand White rabbits, using the procedure described in Arch. Pharm., 1990, 342, 111. Agonist potencies were calculated as -log10 EC50 (pEC50) values, from plots of percentage 5-HT (1 μm) response against the concentration of the agonist.

SMILES strings stand for the structures. Counter-ions that a name gives are not always drawn. Where only a bound is given, the exact number is not on record here.

T1 sequence (P49144 whole entry): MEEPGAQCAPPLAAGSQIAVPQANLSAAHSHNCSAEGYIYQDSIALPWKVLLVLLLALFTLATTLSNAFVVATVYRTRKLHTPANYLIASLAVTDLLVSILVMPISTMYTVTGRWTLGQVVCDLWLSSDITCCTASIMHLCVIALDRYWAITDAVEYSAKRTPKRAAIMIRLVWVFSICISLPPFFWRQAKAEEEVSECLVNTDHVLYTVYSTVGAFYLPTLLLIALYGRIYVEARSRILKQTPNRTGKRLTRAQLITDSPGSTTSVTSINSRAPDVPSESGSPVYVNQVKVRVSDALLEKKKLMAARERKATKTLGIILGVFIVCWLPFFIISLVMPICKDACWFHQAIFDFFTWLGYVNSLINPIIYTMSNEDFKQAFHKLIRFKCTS

As to `Cc1noc(-c2ccc3[nH]nc(CCN)c3c2)n1` [Example 2, 2-[5-(3-Methyl-1,2,4-oxadiazol-5-yl)-1H-indazol-3-yl])ethylamine hydrogen oxalate], the EC50 was at most 10 µM.

The values are drawn from patent US5208248A, “Indazole-substituted five-membered heteroaromatic compounds” (Merck Sharpe & Dohme, Ltd., priority 1991, dated 1993).
